Tests used:
[1] = biological target: T1, α4β2 subtype of nicotinic acetylcholine receptors (Rattus norvegicus, UniProt P09483+P12390); experiment: Binding assay at α4β2 subtype of nicotinic acetylcholine receptors ([3H]-cytisine, rat brain membrane); details: for control % of [3H]-cytisine binding at 1 μM of test compound: 1 μM test compound; for control % of [3H]-cytisine binding at 1 μM of test compound / control % of [3H]-cytisine binding at 10 μM of test compound: % of control binding remaining; for control % of [3H]-cytisine binding at 10 μM of test compound: 10 μM test compound
T1 construct: examined using rat brain membrane obtained from whole homogenized brain; from tissue; host or cells: whole brain membranes of Fischer-344 male rats
Description: (§1) The methods for evaluating the binding capabilities of the compounds against nicotinic acetylcholine receptors are different by subtypes of receptors. The binding capabilities of the compounds at α4β2 nicotinic acetylcholine receptors are examined using rat brain membrane obtained from whole homogenized brain, and determining the inhibiting rate of the compounds against [^3H]-cytisine binding to said brain membrane. Furthermore, the binding capabilities of the compounds at α1β1γδ nicotinic acetylcholine receptors are examined using homogenized rat muscle, and determining the inhibiting rate of the compounds against [^3H]-α-bungarotoxin binding to said muscle membrane.
Binding Assays at α4β2 Subtype of Nicotinic Acetylcholine Receptors
The affinity of the compounds of the present invention to α4β2 subunit of nicotinic acetylcholine receptors was performed by the following method, which was modified method described by Pabreza L. A., Dhawan S. & Kellar K. J., Mol. Pharm., 39, 9-12 (1990), and by Anderson D. J. & Arneric S. P., Eur. J. Pharm., 253, 261-267 (1994).
(1) Preparation of Rat Brain Membrane Containing α4β2 subtype of Nicotinic Acetylcholine Receptors
Fischer-344 strain male rats (body weight: 200-240 g; 9 weeks old) obtained from Charles River Japan were used. Rats were housed in the breeding cage controlled of the room temperature at 23±1° C., and the humidity of 55±5% for 1 to 4 weeks. Rats (3 to 4 rats per a cage) were housed with lights on for 12 hours daily (from 7:00 to 19:00), and allowed free access to food and water.
Preparation of rat brain membrane containing α4β2 subtype of nicotinic acetylcholine receptors was performed as follow. That is, rat brains were isolated just after sacrificed by decapitation, washed with ice-cooled saline solution and then frozen at −80° C. with liquid nitrogen and stored till using. After thawing the frozen brain, the brain was homogenized in 10 volumes of buffer solution (50 mM of Tris-HCl, 120 mM of NaCl, 5 mM of KCl, 1 mM of MgCl2, 2mM of CaCl2; pH 7.4; 4° C.) using homogenizer (HG30, Hitachi Kohki Ltd.) for 30 seconds, and the homogenate were centrifuged under 1,000×G for 10 minutes at 4° C. The resulting supernatant was separated and the pellet was homogenized again with half volume of aforementioned prior buffer solution and centrifuged under the same conditions. Combined supernatant was further centrifuged under 40,000×G for 20 minutes at 4° C. The pellet was suspended in buffer solution and used for binding assays at receptors.
(2) Experiments of α4β2 Subtype of Nicotinic Acetylcholine Receptors Binding
Suspensions of membrane pellets containing 400-600 μg of protein were added to test tubes containing test compounds and [^3H]-cytisine (2 nM) in a final volume of 200 μl and incubated for 75 minutes in ice-cooled bath. The samples were isolated by vacuum filtration onto Whatman GF/B filters, which were prerinsed with 0.5% polyethylenimine just prior to sample filtration, using Brandel multi manifold cell harvester. The filters were rapidly washed with buffer solution (3×1 ml). The filters were counted in 3 ml of clearsol I (Nacalai Tesque Inc.).
The analyses of the experimental results were conducted by using the Accufit Competition Program (Beckman Ltd.).

[2] = biological target: T2, α1β1γδ subtype of nicotinic acetylcholine receptors (Rattus norvegicus, UniProt P25108); experiment: biochemical; assay type: binding; details: % of control binding remaining; for control % of [3H]-α-Bgt binding at 100 μM of test compound: 100 μM test compound; for control % of [3H]-α-Bgt binding at 1,000 μM of test compound: 1,000 μM test compound
T2 construct: The centrifugation at 100,000×G for 60 minutes at 4° C. yielded the rat muscle extract as supernatant
Description: as §1
Binding Assays at α1β1γδ Subtype of Nicotinic Acetylcholine Receptors
The affinity of the compounds of the present invention to α1β1γδ subtype of nicotinic acetylcholine receptors was measured by the following method, which was modified method described by Garcha H. S., Thomas P., Spivak C.
(1) Preparation of Rat Skeletal Muscles Containing α1β1γδ Subtype of Nicotinic Acetylcholine Receptors
The substantially same animals described in the Biological Experiment 1 were used.
The isolation of α1β1γδ subtype of nicotinic acetylcholine receptors was performed as follow. That is, rat posterior skeletal muscles were isolated just after sacrificed by decapitation, washed with ice-cooled saline solution and then frozen at −80° C. with liquid nitrogen and stored till using. After thawing the frozen muscles, tissue was homogenized (40% w/v) with buffer solution [2.5 mM of sodium phosphate buffer (pH:7.2), 90 mM of NaCl, 2 mM of KCl, 1 mM of EDTA, 2 mM of benzamidine, 0.1 mM of benzethonium chloride, 0.1 mM of PMSF, 0.01% of sodium azide] in Waring blender [Waring blender 34BL97; WARING PRODUCTS DIVISION DYNAMICS CORPORATION OF AMERICA) for 60 seconds. The homogenate were centrifuged under 20,000×G for 60 minutes at 4° C. The supernatant was separated and the resulting pellet was added to the same buffer (1.5 ml/g wet weight), and homogenized under the same conditions. Triton X100 (2% w/v) was added and the mixture was stirred for 3 hours at 4° C. The centrifugation at 100,000×G for 60 minutes at 4° C. yielded the rat muscle extract as supernatant. This was stored at 4° C. for up to 4 weeks, and used for binding assays at receptors.
(2) Experiments of α1β1γδ Subtype of Nicotinic Acetylcholine Receptors Binding
Receptors binding experiments were performed as follow. That is, the extract of rat muscle containing 600-900 μg of protein was added to test tubes containing test compounds and incubated for 15 minutes at 37° C. Then, to this mixture was added 1 nM of [^3H]-α-bungarotoxin (α-Bgt) and further incubated for 2 hours. The samples were isolated by vacuum filtration onto Whatman GF/B filters, which were prerinsed with 0.5% polyethylenimine just prior to sample filtration, using Brandel multi manifold cell harvester. The filters were rapidly rinsed with washing solution (10 mM of KH2PO4, 150 mM of NaCl, pH 7.2, room temperature) (5×1 ml). The filters were counted in 3 ml of clearsol I (Nacalai Tesque Inc.). The determination of nonspecific binding was incubated in the presence of 1 μM α-Bgt. […] In the receptor binding experiments, said buffer solution was added for adjusting the final concentration of BSA to be 0.05%.
The analyses of the experimental results were conducted by as described in the Biological Experiment 1.

T1 sequence (P09483 31-630): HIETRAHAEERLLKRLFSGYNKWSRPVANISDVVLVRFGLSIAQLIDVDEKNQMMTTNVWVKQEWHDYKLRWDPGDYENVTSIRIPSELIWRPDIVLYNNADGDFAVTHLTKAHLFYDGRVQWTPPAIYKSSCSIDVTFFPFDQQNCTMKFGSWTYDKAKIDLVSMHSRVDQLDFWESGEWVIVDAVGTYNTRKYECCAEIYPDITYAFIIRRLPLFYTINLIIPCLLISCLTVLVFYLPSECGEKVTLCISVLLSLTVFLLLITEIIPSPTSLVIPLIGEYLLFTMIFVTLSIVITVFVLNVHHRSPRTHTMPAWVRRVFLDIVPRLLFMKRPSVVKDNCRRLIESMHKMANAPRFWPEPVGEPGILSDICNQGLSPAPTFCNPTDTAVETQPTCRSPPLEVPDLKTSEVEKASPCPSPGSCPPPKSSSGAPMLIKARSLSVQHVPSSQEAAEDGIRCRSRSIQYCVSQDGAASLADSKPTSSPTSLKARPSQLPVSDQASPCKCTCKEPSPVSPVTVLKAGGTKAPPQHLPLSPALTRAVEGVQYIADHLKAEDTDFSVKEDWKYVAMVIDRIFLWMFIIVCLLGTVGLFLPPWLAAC
T1 sequence (P12390 25-500): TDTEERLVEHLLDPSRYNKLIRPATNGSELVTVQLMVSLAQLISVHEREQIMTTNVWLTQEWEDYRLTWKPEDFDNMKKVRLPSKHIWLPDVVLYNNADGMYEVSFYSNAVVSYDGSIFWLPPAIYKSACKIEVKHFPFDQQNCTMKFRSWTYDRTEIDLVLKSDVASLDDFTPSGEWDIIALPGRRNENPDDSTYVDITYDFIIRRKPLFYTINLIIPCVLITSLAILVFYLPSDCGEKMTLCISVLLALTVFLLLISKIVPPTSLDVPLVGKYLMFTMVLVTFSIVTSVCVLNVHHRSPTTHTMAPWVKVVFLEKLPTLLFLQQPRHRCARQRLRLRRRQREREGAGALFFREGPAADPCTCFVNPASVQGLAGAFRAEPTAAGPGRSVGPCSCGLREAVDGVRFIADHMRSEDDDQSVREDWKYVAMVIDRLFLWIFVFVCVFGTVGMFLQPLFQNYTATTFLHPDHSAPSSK
T2 sequence (P25108 21-457): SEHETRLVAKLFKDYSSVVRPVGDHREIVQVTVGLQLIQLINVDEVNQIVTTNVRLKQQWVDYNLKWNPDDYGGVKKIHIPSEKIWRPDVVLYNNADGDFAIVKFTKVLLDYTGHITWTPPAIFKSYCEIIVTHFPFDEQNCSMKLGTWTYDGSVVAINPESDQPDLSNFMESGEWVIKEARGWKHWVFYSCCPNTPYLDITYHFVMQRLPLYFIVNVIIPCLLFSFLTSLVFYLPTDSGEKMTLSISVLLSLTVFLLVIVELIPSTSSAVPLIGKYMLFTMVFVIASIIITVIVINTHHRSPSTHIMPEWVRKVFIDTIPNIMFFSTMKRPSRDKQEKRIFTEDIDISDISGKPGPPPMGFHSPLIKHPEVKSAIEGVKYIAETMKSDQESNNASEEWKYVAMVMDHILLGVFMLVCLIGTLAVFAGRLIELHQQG
T2 sequence (P25109 24-501, further chain): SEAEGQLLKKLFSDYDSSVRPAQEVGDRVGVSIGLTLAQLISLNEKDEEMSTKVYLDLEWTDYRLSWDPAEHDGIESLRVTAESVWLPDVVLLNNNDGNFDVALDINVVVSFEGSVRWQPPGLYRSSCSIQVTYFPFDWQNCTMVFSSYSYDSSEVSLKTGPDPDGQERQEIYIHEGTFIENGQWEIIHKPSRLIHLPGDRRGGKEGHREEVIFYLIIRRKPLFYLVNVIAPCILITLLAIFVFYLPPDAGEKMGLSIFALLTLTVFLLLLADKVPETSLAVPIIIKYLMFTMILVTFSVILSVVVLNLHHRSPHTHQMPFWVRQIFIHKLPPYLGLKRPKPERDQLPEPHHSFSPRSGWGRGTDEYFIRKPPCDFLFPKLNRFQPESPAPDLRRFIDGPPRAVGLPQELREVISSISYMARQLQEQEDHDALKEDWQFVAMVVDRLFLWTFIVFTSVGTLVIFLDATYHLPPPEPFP
T2 sequence (P25110 22-517, further chain): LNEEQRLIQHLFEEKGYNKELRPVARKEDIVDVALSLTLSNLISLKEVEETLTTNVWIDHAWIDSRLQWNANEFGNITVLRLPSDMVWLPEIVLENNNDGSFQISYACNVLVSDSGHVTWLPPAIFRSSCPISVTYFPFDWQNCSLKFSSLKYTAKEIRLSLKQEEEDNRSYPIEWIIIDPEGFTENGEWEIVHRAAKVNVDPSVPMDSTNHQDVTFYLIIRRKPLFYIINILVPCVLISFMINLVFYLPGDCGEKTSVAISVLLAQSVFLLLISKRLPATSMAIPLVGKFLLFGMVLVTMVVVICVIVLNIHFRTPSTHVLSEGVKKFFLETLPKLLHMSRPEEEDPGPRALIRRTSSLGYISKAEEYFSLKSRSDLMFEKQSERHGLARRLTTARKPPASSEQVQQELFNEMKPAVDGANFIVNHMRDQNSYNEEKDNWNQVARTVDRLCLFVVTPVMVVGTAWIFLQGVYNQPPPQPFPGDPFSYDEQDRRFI

SMILES | control % of [3H]-cytisine binding at 1 μM of test compound [1] | control % of [3H]-cytisine binding at 10 μM of test compound [1] | Ki [1] | control % of [3H]-α-Bgt binding at 100 μM of test compound [2] | control % of [3H]-α-Bgt binding at 1,000 μM of test compound [2]
Clc1ccc(C/N=c2\ncccn2Cc2ccc(Cl)nc2)cn1 [Compound 5, 1-(6-chloro-3-pyridyl)methyl-2-[(6-chloro-3-pyridyl)methyl]imino-1,2-dihydropyrimidine] | 92% | 23% |  |  | 
N=C1N(Cc2ccc(Cl)nc2)CCCN1Cc1ccc(Cl)nc1 [Compound 4, 1,3-bis[(6-chloro-3-pyridyl)methyl]-2-imino-1,2,3,4,5,6-hexahydropyrimidine] |  |  | 475 nM | 49% | 30%
Clc1cc/c(=N\Cc2ccc(Cl)nc2)n(Cc2ccc(Cl)nc2)c1 [Compound 6, 5-chloro-1-(6-chloro-3-pyridyl)methyl-2-[(6-chloro-3-pyridyl)methyl]imino-1,2-dihydropyridine] | 94% | 45% |  |  | 
CC1CCC/C(=N\Cc2ccc(Cl)nc2)N1Cc1ccc(Cl)nc1 (stereo not shown) [Compound 7, 1-(6-chloro-3-pyridyl)methyl-2-[(6-chloro-3-pyridyl)methyl]imino-6-methylpiperidine] | 85% | 75% |  | 85% | 52%
Clc1ccc(Cn2ccs/c2=N\c2ccccc2)cn1 [Compound 12, 3-(6-Chloro-3-pyridyl)methyl-2-phenylimino-2,3-dihydrothiazole] | 109% | 84% |  | 86% | 48%
N=c1n(Cc2ccc(Cl)nc2)ccn1Cc1ccc(Cl)nc1 [Compound 10, 1,3-bis[(6-chloro-3-pyridyl)methyl]-2-imino-2,3-dihydroimidazole] | 89% | 46% |  |  | 
Clc1ccc(C/N=C2\NCCCN2Cc2ccc(Cl)nc2)cn1 [Compound 3, 1-(6-chloro-3-pyridyl)methyl-[(6-chloro-3-pyridyl)methyl]imino-1,2,3,4,5,6-hexahydropyrimidine] |  |  | 739 nM | 77% | 76%
Clc1ccc(CN2CCS/C2=N\Cc2ccccc2)cn1 [Compound 14, 2-Benzylimino-3-(6-chloro-3-pyridyl)methylthiazolidine] |  |  | 123 nM | 64% | 20%
Cc1cs/c(=N\Cc2ccc(Cl)nc2)n1Cc1ccc(Cl)nc1 [Compound 9, 3-(6-Chloro-3-pyridyl)methyl-2-[(6-chloro-3-pyridyl)methyl]imino-4-methyl-2,3-dihydrothiazole] |  |  | 110 nM | 78% | 40%
C/N=C1\SCCN1Cc1ccc(Cl)nc1 [Compound 11, 3-(6-chloro-3-pyridyl)methyl-2-methylimino-thiazolidine] | 93% | 18% |  |  | 

Reference: patent US6900202B2, “Di-substituted imineheterocyclic compounds” (priority 2000, dated 2005)
